Where a name gives a salt, the structure may show the parent alone.
Experiment: solubility by stirred slurry, salt concentration in solution by HPLC
Type: physicochemical
Conditions: 25 °C, thermodynamic from solid, after 8 days stirring at 25 degC, slurry in "a volume of solvent" (solvent not named)
Experimental: The solubility of a sample of the hydrochloride salt of the invention was determined by adding an amount of it to a volume of solvent with stirring so as to form a slurry. The slurry was stirred at 25 degC. The stirred slurry was tested at regular intervals (i.e. 1, 3, 6 and 8 days) until the concentration of the salt in solution was substantially constant. HPLC was used to determine the salt concentration in solution.

SMILES: COCC1C2CCC(CC1c1ccc(Cl)c(Cl)c1)N2 [salt of the invention, hydrochloride salt of (1R,2R,3S,5S)-3-(3,4-dichlorophenyl)-2-[(methyloxy)methyl]-8-azabicyclo[3.2.1]octane]
- solubility at 8 days: 438 mg/mL

— patent US8263611B2, “Hydrochloride salt of an azabicyclo[3.2.1]octane derivative” (Neurosearch A/S, priority 2007, dated 2012)
